Legend:
[1] = tested on: thistle (Cirsium arvense, CIRAR); test: Postemergence herbicidal activity, greenhouse trial (visual injury 0-100%); format: in vivo
Protocol: (§1) Seeds of the desired test plant species were planted in Sun Gro MetroMix® 306 planting mixture, which typically has a pH of 6.0 to 6.8 and an organic matter content of about 30 percent, in plastic pots with a surface area of 103.2 square centimeters (cm^2). […] The plants were grown for 7-36 days (d) in a greenhouse with an approximate 14-hour (h) photoperiod which was maintained at about 23° C. during the day and 22° C. during the night. Nutrients and water were added on a regular basis and supplemental lighting was provided with overhead metal halide 1000-Watt lamps as necessary. The plants were employed for testing when they reached the second or third true leaf stage.
(§2) Weighed amounts of technical or formulated material (emulsifiable concentrate (EC) or soluble concentrate (SL)) were dissolved in a volume of 97:3 volume per volume (v/v) acetone/dimethyl sulfoxide (DMSO) to stock solutions. […] The concentrated stock solutions were diluted with an aqueous mixture of 1.5% v/v of Agri-dex crop oil concentrate to provide the appropriate application rates. Compound requirements are based upon a 12 milliliter (mL) application volume at a rate of 187 liters per hectare (L/ha). Spray solutions of the experimental compound mixtures were prepared by adding the stock solutions to the appropriate amount of dilution solution to form a 12 mL spray solution in two-way combinations. Formulated compounds were applied to the plant material with an overhead Mandel track sprayer equipped with 8002E nozzles calibrated to deliver 187 L/ha over an application area of 0.503 square meters (m^2) at a spray height of 18 inches (43 centimeters (cm)) above average plant canopy. Control plants were sprayed in the same manner with the solvent blank. Application rates for component (a) are in g ae/ha, and application rates for component (b) are in g ai/ha.
(§3) The treated plants and control plants were placed in a greenhouse as described above and watered by sub-irrigation to prevent wash-off of the test compounds. After 20-22 d, the condition of the test plants as compared with that of the control plants was determined visually and scored on a scale of 0 to 100 percent where 0 corresponds to no injury and 100 corresponds to complete kill. Colby's equation was used to determine the herbicidal effects expected from the mixtures. […]
(§4) Weighed amounts of technical material were dissolved in a volume of 97:3 volume per volume (v/v) acetone/dimethyl sulfoxide (DMSO) to stock solutions. […] The concentrated stock solutions were diluted with an aqueous mixture of 1.5% v/v of Agri-dex crop oil concentrate to provide the appropriate application rates. Compound requirements are based upon a 12 milliliter (mL) application volume at a rate of 187 liters per hectare (L/ha).

[2] = tested on: common rice (Oryza sativa, ORYSA); test: Postemergence crop injury (phytotoxicity), greenhouse trial (visual injury 0-100%)
Protocol: as §1, §2
(§5) The treated plants and control plants were placed in a greenhouse as described above and watered by sub-irrigation to prevent wash-off of the test compounds. After 20-22 d, the condition of the test plants as compared with that of the control plants was determined visually and scored on a scale of 0 to 100 percent where 0 corresponds to no injury and 100 corresponds to complete kill. The condition of the test plants was compared with that of the control plants as determined visually and scored on a scale of 0 to 100 percent, where 0 corresponds to no injury and 100 corresponds to complete kill. Colby's equation was used to determine the herbicidal effects expected from the mixtures.
(§6) Compound 1 was formulated as an EC and was combined with florasulam, cloransulam, diclosulam, flumetsulam, penoxsulam, or pyroxsulam. Compound 2 was formulated as an EC and was combined with florasulam or pyroxsulam. The mixtures were applied to winter wheat (TRZAW), common rice (ORYSA), maize (ZEAMX), and the phytotoxicity of the herbicidal compositions was measured. In addition, the efficacy of the herbicidal compositions on blackgrass (Alopecurus myosuroides, ALOMY), pigweed (Amaranthus retrollexus, AMARE), wild oat (Avena fatua, AVEFA), common lambsquarters (Chenopodium album L., CHEAL), thistle (Cirsium arvense CIRAR), nutsedge (Cyperus esculentus, CYPES), barnyardgrass (Echinochloa crus-galli, ECHCG), poinsettia (Euphorbia heterophylla, EPHHL), ivyleaf morning-glory (Ipomoea hederacea, IPOHE), kochia (Kochia scoparia, KCHSC), wild buckwheat (Polygonum convolvulus, POLCO), grain sorghum (Sorghum vulgare, SORVU), chickweed (Stellaria media, STEME), wild pansy (Viola tricolor, VIOTR), was evaluated.
(§7) Weighed amounts of technical material were dissolved in a volume of 97:3 volume per volume (v/v) acetone/dimethyl sulfoxide (DMSO) to stock solutions. […] The concentrated stock solutions were diluted with an aqueous mixture of 1.5% v/v of Agri-dex crop oil concentrate to provide the appropriate application rates. Compound requirements are based upon a 12 milliliter (mL) application volume at a rate of 187 liters per hectare (L/ha). […]

[3] = tested on: wild pansy (Viola tricolor, VIOTR); test: Postemergence herbicidal activity, greenhouse trial (visual injury 0-100%); format: in vivo
Protocol: as §1, §2, §5
as §6, with “Compound 1 was formulated as an EC and was combined with florasulam, cloransulam, diclosulam, flumetsulam, penoxsulam, or pyroxsulam.” left out
as §4

[4] = tested on: pigweed (Amaranthus retroflexus, AMARE); test: as above; format: in vivo; conditions: Amaranthus retroflexus, post-emergence, read-out: % visual injury Obs
Protocol: as §1, §2, §3, §4

[5] = tested on: nutsedge (Cyperus esculentus, CYPES); test: as above; format: in vivo
Protocol: as §1
as §2, with “technical” for “technical or formulated”, “material” for “material (emulsifiable concentrate (EC) or soluble concentrate (SL))”
as §3, §2

[6] = tested on: poinsettia (Euphorbia heterophylla, EPHHL); test: as above; format: in vivo; conditions: Euphorbia heterophylla, post-emergence, read-out: % visual injury Obs
Protocol: as §1
as §2, with “technical” for “technical or formulated”, “material” for “material (emulsifiable concentrate (EC) or soluble concentrate (SL))”
as §3, §2

[7] = tested on: wild oat (Avena fatua, AVEFA); test: as above; format: in vivo
Protocol: as §1, §2, §5, §6, §7

[8] = tested on: blackgrass (Alopecurus myosuroides, ALOMY); test: as above; format: in vivo
Protocol: as §1, §2, §5, §6, §7

[9] = tested on: ivyleaf morning-glory (Ipomoea hederacea, IPOHE); test: as above; format: in vivo
Protocol: as §1, §2, §5, §6, §7

[10] = tested on: common lambsquarters (Chenopodium album L., CHEAL); test: as above; format: in vivo; conditions: Chenopodium album, post-emergence, read-out: % visual injury Obs
Protocol: as §1, §2, §5, §6, §7

[11] = tested on: giant foxtail (Setaria faberi, SETFA); test: as above; format: in vivo
[12] = tested on: barnyardgrass (Echinochloa crus-galli, ECHCG); test: as above; format: in vivo
Protocol: as §1, §2, §5, §6, §7

[13] = tested on: large crabgrass (Digitaria sanguinalis, DIGSA); test: as above; format: in vivo
[14] = tested on: kochia (Kochia scoparia, KCHSC); test: as above; format: in vivo
Protocol: as §1, §2, §3, §4

[15] = tested on: winter wheat (Triticum aestivum, TRZAW); test: Postemergence crop injury (phytotoxicity), greenhouse trial (visual injury 0-100%); conditions: TRZAW
Protocol: as §1
as §2, with “technical” for “technical or formulated”, “material” for “material (emulsifiable concentrate (EC) or soluble concentrate (SL))”
as §5
Compound 2 was combined with florasulam and applied to winter wheat (TRZAW) and the phytotoxicity of the herbicidal composition was measured. In addition, the efficacy of the herbicidal composition on poinsettia (Euphorbia heterophylla, EPHHL) and […] (Cyperus esculentus, CYPES) was evaluated.
as §4, with “technical or formulated” for “technical”, “material (emulsifiable concentrate (EC) or soluble concentrate (SL))” for “material”, “(L/ha). Spray solutions of the experimental compound mixtures were prepared by adding the stock solutions to the appropriate amount of dilution solution to form a 12 mL spray solution in two-way combinations. […]” for “(L/ha).”

[16] = tested on: velvetleaf (Abutilon theophrasti, ABUTH); test: Postemergence herbicidal activity, greenhouse trial (visual injury 0-100%); format: in vivo; conditions: 15 g ai/ha
[17] = tested on: chickweed (Stellaria media, STEME); test: as above; format: in vivo; conditions: 15 g ai/ha
Protocol: as §1, §2, §5, §6, §7

Compound: COc1cc(OC)nc(Oc2cccc(Oc3nc(OC)cc(OC)n3)c2C(=O)[O-])n1.[Na+] [Bispyribac-sodium]
- % visual injury Obs ([1]; 10 g ai/ha): 95%
- % visual injury Obs ([2]; 10 g ai/ha): 10%
- % visual injury Obs ([3]; 10 g ai/ha): 80%

Compound: Nc1c(F)c(-c2ccc3cc[nH]c3c2F)nc(C(=O)OCc2ccccc2)c1Cl [Compound 2]
- pest or weed control at 5 g/ha ([4]; 5 g ae/ha): 88%
- pest or weed control at 10 g/ha ([4]; 10 g ae/ha): 100%
- pest or weed control at 5 g/ha ([5]; Cyperus, post-emergence, 5 g ae/ha, read-out: % visual injury Obs): 5%
- pest or weed control at 10 g/ha ([5]; Cyperus, post-emergence, 10 g ae/ha, read-out: % visual injury Obs): 10%
- pest or weed control at 5 g/ha ([6]; 5 g ae/ha): 35%
- pest or weed control at 10 g/ha ([6]; 10 g ae/ha): 75%
- % visual injury Obs ([7]; 5 g ae/ha): 0%
- % visual injury Obs ([7]; 10 g ae/ha): 0%
- % visual injury Obs ([8]; 5 g ae/ha): 0%
- % visual injury Obs ([8]; 10 g ae/ha): 0%
- pest or weed control at 5 g/ha ([9]; Ipomoea hederacea, post-emergence, 5 g ae/ha, read-out: % visual injury Obs): 10%
- pest or weed control at 10 g/ha ([9]; Ipomoea hederacea, post-emergence, 10 g ae/ha, read-out: % visual injury Obs): 20%
- pest or weed control at 5 g/ha ([10]; 5 g ae/ha): 88%
- pest or weed control at 10 g/ha ([10]; 10 g ae/ha): 99%

Compound: Cc1cnc(C2=NC(C)(C(C)C)C(=O)N2)c(C(=O)O)c1 (centres unmarked) [Imazapic, imazapic]
- % visual injury Obs ([11]; 35 g ai/ha): 90%
- pest or weed control at 35 g/ha ([3]; Viola tricolor, post-emergence, 35 g ai/ha, read-out: % visual injury Obs): 10%
- % visual injury Obs ([7]; 35 g ai/ha): 95%
- pest or weed control at 35 g/ha ([12]; Echinochloa crus-galli, post-emergence, 35 g ai/ha, read-out: % visual injury Obs): 93%
- pest or weed control at 35 g/ha ([9]; Ipomoea hederacea, post-emergence, 35 g ai/ha, read-out: % visual injury Obs): 75%

Compound: CC(C)C1(C)N=C(c2ncccc2C(=O)O)NC1=O (centres unmarked) [Imazapyr, imazapyr]
- pest or weed control at 280 g/ha ([3]; Viola tricolor, post-emergence, 280 g ai/ha, read-out: % visual injury Obs): 80%
- % visual injury Obs ([8]; 280 g ai/ha): 97%
- pest or weed control at 280 g/ha ([9]; Ipomoea hederacea, post-emergence, 280 g ai/ha, read-out: % visual injury Obs): 85%
- % visual injury Obs ([13]; 280 g ai/ha): 95%

Compound: COc1cc(OC)nc(NC(=O)NS(=O)(=O)Nc2ccccc2C(=O)N(C)C)n1 [Orthosulfamuron, orthosulfamuron]
- pest or weed control at 15 g/ha ([4]; AMARE, orthosulfamuron 15 g ai/ha): 10%
- pest or weed control at 15 g/ha ([14]; Bassia scoparia, post-emergence, KCHSC, orthosulfamuron 15 g ai/ha, read-out: % visual injury Obs): 0%
- % visual injury Obs ([2]; ORYSA, orthosulfamuron 15 g ai/ha): 0%
- pest or weed control at 15 g/ha ([9]; Ipomoea hederacea, post-emergence, IPOHE, orthosulfamuron 15 g ai/ha, read-out: % visual injury Obs): 90%
- % visual injury Obs ([15]; orthosulfamuron 15 g ai/ha): 0%

Compound: metsulfuron
- % visual injury Obs ([1]; CIRAR, metsulfuron 1.5 g ai/ha): 90%
- % visual injury Obs ([14]; KCHSC, metsulfuron 1.5 g ai/ha): 70%
- % visual injury Obs ([2]; ORYSA, metsulfuron 1.5 g ai/ha): 20%
- % visual injury Obs ([5]; CYPES, metsulfuron 1.5 g ai/ha): 50%
- % visual injury Obs ([12]; ECHCG, metsulfuron 1.5 g ai/ha): 0%
- % visual injury Obs ([15]; metsulfuron 1.5 g ai/ha): 0%

Compound: pyribenzoxim
- % visual injury Obs ([14]; 15 g ai/ha): 0%
- % visual injury Obs [16]: 10%
- % visual injury Obs ([2]; 15 g ai/ha): 0%
- % visual injury Obs ([11]; 15 g ai/ha): 70%
- % visual injury Obs [17]: 40%
- % visual injury Obs ([9]; 15 g ai/ha): 70%
- % visual injury Obs ([13]; 15 g ai/ha): 0%

Source: patent US20190364896A1, “SYNERGISTIC WEED CONTROL FROM APPLICATIONS OF PYRIDINE CARBOXYLIC ACID HERBICIDES AND ALS INHIBITORS” (Dow AgroSciences LLC, priority 2014, published 2019)
